{"source": "patent US20130143812A1", "about": "“ANTI-INFLAMMATORY DRUG” (SEKISUI MEDICAL CO., LTD., priority 2010, published 2013)", "molecules": {"B1": {"name": "Fstl3: Follistatin-like 3 Recombinant (R&D Systems, 1255F3025); binds to activins and inhibits binding to their receptor (protein, UniProt O95633 27-263, looked up)", "Follistatin-related protein 3": "MGSGNPAPGGVCWLQQGQEATCSLVLQTDVTRAECCASGNIDTAWSNLTHPGNKINLLGFLGLVHCLPCKDSCDGVECGPGKACRMLGGRPRCECAPDCSGLPARLQVCGSDGATYRDECELRAARCRGHPDLSVMYRGRCRKSCEHVVCPRPQSCVVDQTGSAHCVVCRAAPCPVPSSPGQELCGNNNVTYISSCHMRQATCFLGRSIGVRHAGSCAGTPEEPPGGESAEEEENFV"}, "B2": {"name": "activin B: Recombinant (R&D Systems, 659AB005); in Examples 3 and 7 expressed by inhibin βB recombinant adenovirus (protein, UniProt P09529 293-407, looked up)", "Inhibin beta B chain": "GLECDGRTNLCCRQQFFIDFRLIGWNDWIIAPTGYYGNYCEGSCPAYLAGVPGSASSFHTAVVNQYRMRGLNPGTVNSCCIPTKLSTMSMLYFDDEYNIVKRDVPNMIVEECGCA", "modifications": "Inhibin beta B chain homodimer"}}, "key": {"[1]": {"test_system": "RAW264.7 cells", "test": "Macrophage marker expression in RAW264.7 cells with activin A, activin B or SB431542 and palmitic acid", "type": "cell-based", "settings": "for expression level of IL-6 / expression level of MCP-1 / expression level of arginase-1: compared to control", "procedure": "(1) Induction of Macrophages by Activin Species Activin A (10 ng/mL), activin B (10 ng/mL), and SB431542 (0.1 to 1 μM) were added to RAW264.7 cells in combination as depicted in FIG. 4. Human Recombinant (R&D Systems, 338AC005) and Recombinant (R&D Systems, 659AB005) were used for activin A and activin B, respectively. After 30 minutes, palmitic acid (a proinflammatory substance) was added to the final concentration of 200 μM and, after eight hours, RNeasy Mini Kit (250) (Qiagen, Cat. Number 74106) was used for recovering the cells to extract RNA. The RNA extracted at step (1) was used for performing a reverse transcription reaction in accordance with the protocol of High Capacity cDNA Reverse Transcription Kit with RNase Inhibitor (ABI) to perform TaqMan PCR. Arginase-1 was selected as an M2 macrophage marker and IL-6 and MCP-1 were selected as M1 macrophage markers to create respective TaqMan probes. Analysis was performed in the same way as the expression analysis of macrophage markers of Example 1."}, "[2]": {"test_system": "RAW264.7 cells", "test": "Expression of M2 macrophage markers in RAW264.7 cells cultured with activin A and SB431542", "type": "cell-based", "settings": "SB431542 0.1 to 1 μM added with activin A, 24 hours", "procedure": "Activin A (10 ng/mL or 30 ng/mL) and SB431542 (0.1 to 1 μM, Santa Cruz Biotechnology, Inc., sc-204265) were added to RAW264.7 cells in combination as depicted in FIG. 2. Human Recombinant (R&D Systems, 338AC005) was used for activin A. After 24 hours, RNeasy Mini Kit (250) (Qiagen, Cat. Number 74106) was used for recovering the cells to extract RNA. The RNA extracted at step (1) was used for performing a reverse transcription reaction in accordance with the protocol of High Capacity cDNA Reverse Transcription Kit with RNase Inhibitor (ABI) to perform TaqMan PCR. Arginase-1, Mrc2 (mannose receptor 2), and IL-10 were selected as M2 macrophage markers to create respective TaqMan probes."}, "[3]": {"test_system": "RAW264.7 cells", "test": "Macrophage marker expression in RAW264.7 cells with activin A, activin B or Fstl3 and palmitic acid", "type": "cell-based", "settings": "palmitic acid 200 μM", "procedure": "(§1) Activin A (10 ng/mL), activin B (10 ng/mL), and Fstl3 (3 to 30 ng/mL) were added to RAW264.7 cells in combination as depicted in FIG. 5. Human Recombinant (R&D Systems, 338AC005), Recombinant (R&D Systems, 659AB005), and Follistatin-like 3 Recombinant (R&D Systems, 1255F3025) were used for activin A, activin B, and Fstl3, respectively. After 30 minutes, palmitic acid (a proinflammatory substance) was added to the final concentration of 200 μM and, after eight hours, RNeasy Mini Kit (250) (Qiagen, Cat. Number 74106) was used for recovering the cells to extract RNA.\nAnalysis was performed in the same way as Example 4. For each of palmitic acid, activin species, and Fstl3, the expression level is represented by a ratio when a measurement value of each marker relative to a measurement value of cyclophilin A in non-additive control is defined as one."}, "[4]": {"test_system": "RAW264.7 cells", "test": "Arginase-1 expression in RAW264.7 cells with activin A, Fstl3, anti-Fstl3 antibody or mouse IgG and palmitic acid", "type": "cell-based", "settings": "Fstl3 30 ng/mL present with activin A 10 ng/mL, palmitic acid 200 μM", "procedure": "as §1, with “Fstl3 (30 ng/mL), an anti-Fstl3 antibody or mouse IgG (0.3 to 10 μg/mL), and activin” for “Activin”, “(10” for “(10 ng/mL), activin B (10 ng/mL), and Fstl3 (3 to 30”, “6.” for “5.”\nThe RNA extracted at step (1) was used for performing a reverse transcription reaction in accordance with the protocol of High Capacity cDNA Reverse Transcription Kit with RNase Inhibitor (ABI) to perform TaqMan PCR. Arginase-1 was selected as an M2 macrophage marker to create TaqMan probes."}, "[5]": {"test_system": "db/db mice", "test": "Arginase-1 mRNA expression in visceral fat of db/db mice given recombinant adenovirus", "type": "in vivo", "settings": "activin expressed by recombinant adenovirus via tail vein once a week for two weeks, compared to control", "text": "(§2) Full-length mouse inhibin βA cDNA or full-length mouse inhibin βB cDNA was amplified by using pcDNA3.1/V5-HisA (Invitrogen) in accordance with the recommended method. The amplified product was subjected to HindIII and EcoRV treatments and used for production of recombinant adenovirus. The recombinant adenovirus of inhibin βA or inhibin βB was produced by using Takara Adenovirus Expression Vector Kit (Takara) in accordance with the recommended method. For negative control, β-galactosidase-gene-containing virus attached to the kit was used. The adenovirus was transfected to HEK293 cells by using CellPhect (registered trademark) Transfection Kit (GE Healthcare) with the calcium phosphate method.\nAfter seven-week-old male db/db mice were adapted for one week, 5.0×10^11 pfu/mL of the recombinant adenovirus was lysed in 150 μL of PBS and administered from the tail vein once a week for two weeks. Visceral fat was collected on seventh day after the second administration for performing a reverse transcription reaction in accordance with the protocol of High Capacity cDNA Reverse Transcription Kit with RNase Inhibitor (ABI) and the expression analysis of arginase-1 was performed with TaqMan PCR."}, "[6]": {"test_system": "high-fat diet-fed B6 mice", "test": "Glucose tolerance test (GTT) in high-fat diet-fed B6 mice given recombinant adenovirus", "type": "in vivo", "settings": "activin expressed by recombinant adenovirus, glucose 1.0 mg/g-BW into abdominal cavity", "procedure": "Adenovirus was produced in the same way as the production of recombinant adenovirus in Example 3.\nAfter five-week-old male B6 mice were adapted with normal diet for one week, high-fat diet was fed for twelve weeks. The recombinant adenovirus (5.0×10^11 pfu/mL) was lysed in 150 μL of PBS and administered to mice in the 18th week from the tail vein once a week for two weeks. A glucose tolerance test (GTT) was performed on seventh day after the second administration.\nThe GTT was performed as follows. Into the abdominal cavities of mice fasted for 16 hours from the previous day of the test, 1.0 mg/g-BW of glucose (diluted by physiological saline) was administered. Serum was separated from collected whole blood and glucose concentration was measured by Glucose-Test Wako (manufactured by Wako Pure Chemical Industries)."}, "[7]": {"test_system": "RAW264.7 cells", "test": "Expression of M2 and M1 macrophage markers in RAW264.7 cells cultured with activin A or activin B (TaqMan PCR)", "type": "cell-based", "settings": "10 or 30 ng/mL added individually, 8 hours", "procedure": "Each of activin A (10 ng/mL or 30 ng/mL) and activin B (10 ng/mL or 30 ng/mL) was individually added to RAW264.7 cells. Human Recombinant (R&D Systems, 338AC005) and Recombinant (R&D Systems, 659AB005) were used for activin A and activin B, respectively. After eight hours, RNeasy Mini Kit (250) (Qiagen, Cat. Number 74106) was used for recovering the cells to extract RNA.\nThe RNA extracted at step (1) was used for performing a reverse transcription reaction in accordance with the protocol of High Capacity cDNA Reverse Transcription Kit with RNase Inhibitor (ABI) to perform TagMan PCR. Arginase-1 was selected as an M2 macrophage marker and IL-6 and MCP-1 were selected as M1 macrophage markers to create respective TaqMan probes. Each of mRNA expression levels is represented by a multiple when an expression level of cyclophilin A mRNA in the same sample is defined as one (hereinafter, the same applies to the examples using TaqMan PCR unless otherwise stated)."}, "[8]": {"test_system": "high-fat diet-fed B6 mice", "test": "Arginase-1 mRNA expression in visceral fat of high-fat diet-fed B6 mice given recombinant adenovirus", "type": "in vivo", "settings": "twelve-week high-fat diet B6 mice, activin expressed by recombinant adenovirus via tail vein once a week for two weeks", "text": "as §2\nAfter five-week-old male B6 mice were adapted with normal diet for one week, high-fat diet was fed for twelve weeks. The recombinant adenovirus (5.0×10^11 pfu/mL) was lysed in 150 μL of PBS and administered to mice in the 18th week from the tail vein once a week for two weeks. Visceral fat was collected on seventh day after the second administration for performing reverse transcription in accordance with the protocol of High Capacity cDNA Reverse Transcription Kit with RNase Inhibitor (ABI) and the expression analysis of arginase-1 was performed with TaqMan PCR."}, "[9]": {"settings": "SB431542 0.1 to 1 μM with palmitic acid 200 μM, absence of activin species"}, "[10]": {"settings": "SB431542 0.1 to 1 μM, activin A 10 ng/mL and palmitic acid 200 μM present"}, "[11]": {"settings": "SB431542 0.1 to 1 μM, activin B 10 ng/mL and palmitic acid 200 μM present"}, "[12]": {"settings": "SB431542 only (0.1 to 1 μM), without palmitic acid"}, "[13]": {"settings": "palmitic acid 200 μM, absence of activin species, 8 hours"}, "[14]": {"settings": "activin 10 ng/mL, palmitic acid 200 μM, 8 hours"}}, "data": [{"molecule": "NC(=O)c1ccc(-c2nc(-c3ccc4c(c3)OCO4)c(-c3ccccn3)[nH]2)cc1", "note": "[SB431542]", "values": [{"measurement": "expression level of IL-6, effect of SB431542", "setting": "[1]; [9]", "result": "constantly increased depending on the additive concentration"}, {"measurement": "palmitic acid-induced increase of MCP-1 expression, effect of SB431542", "setting": "[1]; [9]", "result": "not changed"}, {"measurement": "expression level of IL-6, effect of SB431542", "setting": "[1]; [10]", "result": "constantly increased depending on the additive concentration"}, {"measurement": "expression level of arginase-1, effect of SB431542", "setting": "[1]; [10]", "result": "reduced depending on the additive concentration"}, {"measurement": "palmitic acid-induced increase of MCP-1 expression, effect of SB431542", "setting": "[1]; [10]", "result": "not changed"}, {"measurement": "expression level of IL-6, effect of SB431542", "setting": "[1]; [11]", "result": "constantly increased depending on the additive concentration"}, {"measurement": "expression level of arginase-1, effect of SB431542", "setting": "[1]; [11]", "result": "reduced depending on the additive concentration"}, {"measurement": "palmitic acid-induced increase of MCP-1 expression, effect of SB431542", "setting": "[1]; [11]", "result": "not changed"}, {"measurement": "expression level of IL-6", "setting": "[1]; [12]", "result": "not changed or were slightly changed"}, {"measurement": "expression level of MCP-1", "setting": "[1]; [12]", "result": "not changed or were slightly changed"}, {"measurement": "expression level of arginase-1", "setting": "[1]; [12]", "result": "not changed or were slightly changed"}, {"measurement": "activin A-induced increase in expression of arginase-1, Mrc2 and IL-10", "setting": "[2]", "result": "reduced to the same level as control"}]}, {"molecule": "CCCCCCCCCCCCCCCC(=O)O", "note": "[palmitic acid]", "values": [{"measurement": "expression level of IL-6", "setting": "[1]; [13]", "result": "remarkably increased"}, {"measurement": "expression level of MCP-1", "setting": "[1]; [13]", "result": "remarkably increased"}, {"measurement": "expression level of arginase-1", "setting": "[1]; [13]", "result": "not changed or was slightly changed"}, {"measurement": "expression of IL-6, effect of palmitic acid", "setting": "[3]; 8 hours", "result": "increased"}, {"measurement": "expression of MCP1, effect of palmitic acid", "setting": "[3]; regardless of the presence of activin species, change negligible", "result": "increased"}]}, {"molecule": "B1", "values": [{"measurement": "expression of arginase-1, effect of Fstl3", "setting": "[3]; Fstl3 30 ng/mL added concurrently with activin A 10 ng/mL", "result": "reduced"}, {"measurement": "expression level of MCP1, effect of FSTL3", "setting": "[3]; Fstl3 3 to 30 ng/mL", "result": "not changed"}, {"measurement": "expression level of arginase-1, effect of FSTL3", "setting": "[4]", "result": "reduced to the same level as the control"}]}, {"molecule": "B2", "values": [{"measurement": "expression of arginase-1 in visceral fat", "setting": "[5]", "result": "remarkably increased"}, {"measurement": "expression level of arginase-1", "setting": "[1]; activin 10 ng/mL present, palmitic acid 200 μM added, 8 hours", "result": "remarkably increased"}, {"measurement": "expression level of MCP-1, effect of activin addition", "setting": "[1]; [14]", "result": "not changed"}, {"measurement": "expression of IL-6, effect of activin addition", "setting": "[1]; [14]", "result": "slightly reduced"}, {"measurement": "glucose metabolism in glucose tolerance test (GTT)", "setting": "[6]", "result": "improved glucose metabolism"}, {"measurement": "expression level of IL-6 (M1 macrophage marker)", "setting": "[7]", "result": "not changed"}, {"measurement": "expression level of MCP-1 (M1 macrophage marker)", "setting": "[7]", "result": "not changed"}, {"measurement": "expression of arginase-1 (M2 macrophage marker)", "setting": "[7]; mRNA relative to cyclophilin A", "result": "remarkably increased"}, {"measurement": "expression level of arginase-1 in visceral fat", "setting": "[8]", "result": "similarly increased"}]}]}
